Assay results published in ChEMBL document CHEMBL4706501, “Drug repurposing: Discovery of troxipide analogs as potent antitumor agents” (Eur J Med Chem, 2020).

Assays:
Assay type in all cases: functional, cell-based
[1] = system: PC-3; test: Antiproliferative activity against human PC3 cells assessed as reduction in cell viability after 24 to 72 hrs by MTT assay
[2] = system: PC-9; test: Antiproliferative activity against human PC9 cells assessed as reduction in cell viability after 24 to 72 hrs by MTT assay
[3] = system: MGC-803; test: Antiproliferative activity against human MGC-803 cells assessed as reduction in cell viability after 24 to 72 hrs by MTT assay
[4] = system: MCF7; test: Antiproliferative activity against human MCF7 cells assessed as reduction in cell viability after 24 to 72 hrs by MTT assay

Compound | IC50 [1] | IC50 [2] | IC50 [3] | IC50 [4]
COc1cc(C(=O)NC2CCCNC2)cc(OC)c1OC (stereo unspecified) [TROXIPIDE] | > 100 µM | > 100 µM | > 100 µM | > 100 µM
O=c1[nH]cc(F)c(=O)[nH]1 [FLUOROURACIL] | 5.32 µM | 4.12 µM | – | –
